Experimental data published in patent US20090203064A1, “METHOD AND DEVICE FOR MONITORING PLATELET FUNCTION” (PLACOR INC., priority 2002, published 2009).

Test system: platelet function
Test: Platelet plug formation time of arterial blood from pigs receiving platelet inhibitors (wire-in-tube device)
Type: in vivo
Method: Pigs were placed on various platelet inhibitors and then the platelet function of the pigs was monitored. Twenty-five pigs received 300 mg aspirin daily for seven days. Ten pigs received 300 mg ticlopidine (an ADP inhibitor) daily. Ten pigs received a combination of 300 mg aspirin and 300 mg ticlopidine daily. Twenty microliters of blood were drawn into the lumen of the tube at a rate of 1.0 microliter per second. The wire was 0.016 inches in diameter and the inner diameter of the tube was 0.034 inches in diameter. Blood (20 μl) was delivered via a three-way flow divider (a Touhy-Borst Connector) into a TEFLON tube 2 inches long with a stainless steel wire […] in diameter inserted through the tube and extending about three-fourths of the length of the tube. The wire was held in place at the end of the tube. The tube was coupled to a Hamilton syringe pump and to a HP blood pressure transducer for measuring the pressure in the tube. The platelet plug formation time was determined as damping of the blood pressure signal.

SMILES | Mean platelet plug time (300 mg ticlopidine daily, after 3 days) | Mean platelet plug time (300 mg ticlopidine daily, after 7 days) | Mean platelet plug time (300 mg aspirin daily, after 3 days) | Mean platelet plug time (300 mg aspirin daily, after 7 days)
Clc1ccccc1CN1CCc2sccc2C1 [ticlopidine] | 5.67 min | 6.21 min |  | 
CC(=O)Oc1ccccc1C(=O)O [aspirin] |  |  | 3.9 (± 0.25) minutes | 4.6 (± 0.42) minutes
